According to patent US20260250290A1 (BRISTOL-MYERS SQUIBB COMPANY, priority 2023, published 2026):
pIC50: −log10 of the molar value. Structures can show the parent of a compound that is named as a salt.

What follows are molecules tested against T1, full length SGK1 (Homo sapiens, UniProt O00141) (assay: SGK1 inhibition Assay A (Caliper LabChip electrophoretic separation of fluorescent peptide substrate and phosphorylated product)). Details: Assay A; 20 μM ATP, 40 min incubation; read-out: SGK1 IC50.
T1 construct: 125 μM full length SGK1 (Life Technologies Part #PR7358A); purchased Life Technologies PR7358A
T1 sequence (O00141 1-431): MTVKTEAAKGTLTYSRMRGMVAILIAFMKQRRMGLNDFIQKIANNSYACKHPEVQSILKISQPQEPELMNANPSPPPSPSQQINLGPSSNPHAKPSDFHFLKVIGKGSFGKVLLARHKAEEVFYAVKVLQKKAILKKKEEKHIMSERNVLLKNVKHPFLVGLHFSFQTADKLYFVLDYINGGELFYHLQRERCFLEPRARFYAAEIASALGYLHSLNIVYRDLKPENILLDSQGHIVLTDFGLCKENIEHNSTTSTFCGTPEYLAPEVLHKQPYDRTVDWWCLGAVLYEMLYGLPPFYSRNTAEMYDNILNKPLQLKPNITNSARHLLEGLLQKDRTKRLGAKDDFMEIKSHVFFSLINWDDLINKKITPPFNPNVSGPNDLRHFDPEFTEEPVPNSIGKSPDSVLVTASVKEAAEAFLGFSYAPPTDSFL
Type: biochemical

Compound | pIC50
CC(=O)N1CC=C(c2cc(N3CCC[C@@H](NC(=O)c4sc(C)cc4N4CCOCC4)C3)c3c(N)ncnn23)C1 [Example 268, (R)—N-(1-(7-(1-acetyl-2,5-dihydro-1H-pyrrol-3-yl)-4-aminopyrrolo[2,1-f][1,2,4]triazin-5-yl)piperidin-3-yl)-5-methyl-3-morpholinothiophene-2-carboxamide] | 7.42
CC(=O)N1CCC(Oc2cc(C(F)F)sc2C(=O)N[C@@H]2CCCN(c3cc(C4=CCN(C(C)=O)C4)n4ncnc(N)c34)C2)CC1 [Example 412, (R)-N-(1-(7-(1-acetyl-2,5-dihydro-1H-pyrrol-3-yl)-4-aminopyrrolo[2,1-f][1,2,4]triazin-5-yl)piperidin-3-yl)-3-((1-acetylpiperidin-4-yl)oxy)-5-(difluoromethyl)thiophene-2-carboxamide] | 7.30
CC(=O)N1CC=C(c2cc(N3CCC[C@@H](NC(=O)c4ccc(-c5cncc(C#N)c5)s4)C3)c3c(N)ncnn23)C1 [Example 551, (R)-N-(1-(7-(1-acetyl-2,5-dihydro-1H-pyrrol-3-yl)-4-aminopyrrolo[2,1-f][1,2,4]triazin-5-yl)piperidin-3-yl)-5-(5-cyanopyridin-3-yl)thiophene-2-carboxamide] | 8.22
CS(=O)(=O)c1ccc(-c2cc(N3CCC[C@@H](NC(=O)c4cnns4)C3)c3c(N)ncnn23)cc1 [Example 70, (R)-N-(1-(4-amino-7-(4-(methylsulfonyl)phenyl)pyrrolo[2,1-f][1,2,4]triazin-5-yl)piperidin-3-yl)-1,2,3-thiadiazole-5-carboxamide] | 7.68
CC(=O)N1CC=C(c2cc(N3CCC[C@@H](NC(=O)c4sc(C5CC5)cc4OC4CCN(C(C)C)CC4)C3)c3c(N)ncnn23)C1 [Example 377, (R)-N-(1-(7-(1-acetyl-2,5-dihydro-1H-pyrrol-3-yl)-4-aminopyrrolo[2,1-f][1,2,4]triazin-5-yl)piperidin-3-yl)-5-cyclopropyl-3-((1-isopropylpiperidin-4-yl)oxy)thiophene-2-carboxamide] | 7.46
CC(=O)N1CC=C(c2cc(N3CCC[C@@H](NC(=O)c4cccc(N5CC6(C5)CN(C(C)C)C6)n4)C3)c3c(N)ncnn23)C1 [Example 781, (R)-N-(1-(7-(1-acetyl-2,5-dihydro-1H-pyrrol-3-yl)-4-aminopyrrolo[2,1-f][1,2,4]triazin-5-yl)piperidin-3-yl)-6-(6-isopropyl-2,6-diazaspiro[3.3]heptan-2-yl)picolinamide] | 8.30
CC(=O)N1CC=C(c2cc(N3CCC[C@@H](NC(=O)c4cccc(N5CCOCC5)n4)C3)c3c(N)ncnn23)C1 [Example 703, (R)-N-(1-(7-(1-acetyl-2,5-dihydro-1H-pyrrol-3-yl)-4-aminopyrrolo[2,1-f][1,2,4]triazin-5-yl)piperidin-3-yl)-6-morpholinopicolinamide] | 7.54
CS(=O)(=O)c1ccc(-c2cc(N3CCC[C@@H](NC(=O)c4ccccc4OC(F)F)C3)c3c(N)ncnn23)cc1 [Example 58, (R)-N-(1-(4-amino-7-(4-(methylsulfonyl)phenyl)pyrrolo[2,1-f][1,2,4]triazin-5-yl)piperidin-3-yl)-2-(difluoromethoxy) benzamide, TFA] | 6.07
CS(=O)(=O)c1ccc(-c2cc(N3CCC[C@@H](NC(=O)c4cncs4)C3)c3c(N)ncnn23)cc1 [Example 66, (R)-N-(1-(4-amino-7-(4-(methylsulfonyl)phenyl)pyrrolo[2,1-f][1,2,4]triazin-5-yl)piperidin-3-yl)thiazole-5-carboxamide] | 7.41
Nc1ncnn2c(-c3ccnc(C(F)F)c3)cc(N3CCC[C@@H](NC(=O)c4sc(C(F)F)cc4N4CCOCC4)C3)c12 [Example 344, (R)—N-(1-(4-amino-7-(2-(difluoromethyl)pyridin-4-yl)pyrrolo[2,1-f][1,2,4]triazin-5-yl)piperidin-3-yl)-5-(difluoromethyl)-3-morpholinothiophene-2-carboxamide] | 8.15
CC(=O)N1CC=C(c2cc(N3CCC[C@@H](NC(=O)c4cnccn4)C3)c3c(N)ncnn23)C1 [Example 446, (R)-N-(1-(7-(1-acetyl-2,5-dihydro-1H-pyrrol-3-yl)-4-aminopyrrolo[2,1-][1,2,4]triazin-5-yl)piperidin-3-yl)pyrazine-2-carboxamide] | 6.90

Second part, the molecule after the results:

pIC50 | Compound
8.30 | Nc1ncnn2c(-c3ccnc(F)c3)cc(N3CCC[C@@H](NC(=O)c4cc(Cl)c(Cl)s4)C3)c12 [Example 150, (R)-N-(1-(4-amino-7-(2-fluoropyridin-4-yl)pyrrolo[2,1-f][1,2,4]triazin-5-yl)piperidin-3-yl)-4,5-dichlorothiophene-2-carboxamide]
8.15 | CCOc1ccsc1C(=O)N[C@@H]1CCCN(c2cc(-c3ccc(S(C)(=O)=O)cc3)n3ncnc(N)c23)C1 [Example 99, (R)-N-(1-(4-amino-7-(4-(methylsulfonyl)phenyl)pyrrolo[2,1-f][1,2,4]triazin-5-yl)piperidin-3-yl)-3-ethoxythiophene-2-carboxamide]
7.01 | CCn1cc(-c2cc(N3CCC[C@@H](NC(=O)c4sc(Cl)cc4OCCN(C)C)C3)c3c(N)ncnn23)cc(C)c1=O [Example 692, (R)—N-(1-(4-amino-7-(1-ethyl-5-methyl-6-oxo-1,6-dihydropyridin-3-yl)pyrrolo[2,1-f][1,2,4]triazin-5-yl)piperidin-3-yl)-5-chloro-3-(2-(dimethylamino)ethoxy)thiophene-2-carboxamide]
6.97 | CC(=O)N1CC=C(c2cc(N3CCC[C@@H](NC(=O)c4snnc4C)C3)c3c(N)ncnn23)C1 [Example 473, (R)-N-(1-(7-(1-acetyl-2,5-dihydro-1H-pyrrol-3-yl)-4-aminopyrrolo[2,1-f][1,2,4]triazin-5-yl)piperidin-3-yl)-4-methyl-1,2,3-thiadiazole-5-carboxamide]
8.52 | NC(=O)N1CC=C(c2cc(N3CCC[C@@H](NC(=O)c4ccc(Cl)s4)C3)c3c(N)ncnn23)C1 [Example 913, (R)-3-(4-amino-5-(3-(5-chlorothiophene-2-carboxamido)piperidin-1-yl)pyrrolo[2,1-f][1,2,4]triazin-7-yl)-2,5-dihydro-1H-pyrrole-1-carboxamide]
8.40 | CN(C)CCOc1cc(C(F)F)sc1C(=O)N[C@@H]1CCCN(c2cc(-c3ccc(C(N)=O)c(F)c3)n3ncnc(N)c23)C1 [Example 302, (R)—N-(1-(4-amino-7-(4-carbamoyl-3-fluorophenyl)pyrrolo[2,1-f][1,2,4]triazin-5-yl)piperidin-3-yl)-5-(difluoromethyl)-3-(2-(dimethylamino)ethoxy)thiophene-2-carboxamide]
8.52 | CC(=O)N1CC=C(c2cc(N3CCC[C@@H](NC(=O)c4sc(Cl)cc4OCCNC(=O)C(F)F)C3)c3c(N)ncnn23)C1 [Example 329, (R)—N-(1-(7-(1-acetyl-2,5-dihydro-1H-pyrrol-3-yl)-4-aminopyrrolo[2,1-f][1,2,4]triazin-5-yl)piperidin-3-yl)-5-chloro-3-(2-(2,2-difluoroacetamido)ethoxy)thiophene-2-carboxamide]
8.22 | CC(=O)N1CC=C(c2cc(N3CCC[C@@H](NC(=O)c4sc(Cl)cc4OC4CCN(C)CC4F)C3)c3c(N)ncnn23)C1 (single isomer, unassigned) [Example 600]
9.00 | COC(=O)N1CC=C(c2cc(N3CCC[C@@H](NC(=O)c4sc(C5CC5)cc4OCCN(C)C)C3)c3c(N)ncnn23)C1 [Example 371, Methyl (R)-3-(4-amino-5-(3-(5-cyclopropyl-3-(2-(dimethylamino)ethoxy)thiophene-2-carboxamido)piperidin-1-yl)pyrrolo[2,1-f][1,2,4]triazin-7-yl)-2,5-dihydro-1H-pyrrole-1-carboxylate]
7.55 | CS(=O)(=O)c1ccc(-c2cc(N3CCC[C@@H](NC(=O)c4cn5ccsc5n4)C3)c3c(N)ncnn23)cc1 [Example 45, (R)-N-(1-(4-amino-7-(4-(methylsulfonyl)phenyl)pyrrolo [2,1-f][1,2,4]triazin-5-yl)piperidin-3-yl)imidazo[2,1-b]thiazole-6-carboxamide]
8.40 | CN(C)CCOc1cc(Cl)sc1C(=O)N[C@@H]1CCCN(c2cc(-c3ccc(=O)n(CC(F)F)c3)n3ncnc(N)c23)C1 [Example 281, (R)-N-(1-(4-amino-7-(1-(2,2-difluoroethyl)-6-oxo-1,6-dihydropyridin-3-yl)pyrrolo[2,1-f][1,2,4]triazin-5-yl)piperidin-3-yl)-5-chloro-3-(2-(dimethylamino)ethoxy) thiophene-2-carboxamide]
7.22 | COC(=O)NCCOc1cc(C(F)F)sc1C(=O)N[C@@H]1CCCN(c2cc(-c3cncnc3)n3ncnc(N)c23)C1 [Example 429, methyl (R)-(2-((2-((1-(4-amino-7-(pyrimidin-5-yl)pyrrolo[2,1-f][1,2,4]triazin-5-yl)piperidin-3-yl)carbamoyl)-5-(difluoromethyl)thiophen-3-yl)oxy)ethyl)carbamate]
7.55 | COCC(=O)N1CC=C(c2cc(N3CCC[C@@H](NC(=O)c4sc(Cl)cc4OCCN4CCOCC4)C3)c3c(N)ncnn23)C1 [Example 259, (R)—N-(1-(4-amino-7-(1-(2-methoxyacetyl)-2,5-dihydro-1H-pyrrol-3-yl)pyrrolo[2,1-f][1,2,4]triazin-5-yl)piperidin-3-yl)-5-chloro-3-(2-morpholinoethoxy)thiophene-2-carboxamide]
8.00 | CC(=O)N1CC=C(c2cc(N3CCC[C@@H](NC(=O)c4sc(Cl)cc4OC4CCN(C5COC5)CC4)C3)c3c(N)ncnn23)C1 [Example 582]
